Drawing on PubChem BioAssay (NCI), this text covers TGI for 13 compounds.

A word on the TGI: it is the concentration giving total growth inhibition. A lower TGI goes with more potent growth arrest.

Among the test systems are IGROV1 ovarian; MDA-MB-435; NCI-H460 lung; NCI-H522 lung; NCI/ADR-RES ovarian; OVCAR-5 ovarian; SN12C renal; T-47D breast; TK-10 renal; UACC-62 melanoma.
Common to all, as to experiment: DTP human tumour cell line panel, 48 h

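Method: 48-hour compound exposure of cells in 96-well plates, five concentrations, linear interpolation of endpoints. TGI: total growth inhibition.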 A value given as a limit tells only on which side of the number the result lay.

Take `COc1ccc2c(c1)c(=O)c1c(NCCCN(C)C)ccc3ncn2c31`: the TGI in the test with IGROV1 ovarian stood at 21.2 µM; with MDA-MB-435, 19.4 µM; in the test with NCI-H460 lung, 8.03 µM; in the test on NCI-H522 lung it was 21.4 µM; in the test on NCI/ADR-RES ovarian, 16.4 µM; in the test on OVCAR-5 ovarian, 25.5 µM. The TGI was 18.9 µM in the test with SN12C renal, 32.8 µM with T-47D breast, 20.1 µM in the test with TK-10 renal and 28.7 µM with UACC-62 melanoma.

As to `COC(=O)C1(Cc2ccc(C)cc2)Cc2c(C)cccc2C1=O` (stereo not given), the TGI in the test with IGROV1 ovarian is greater than 100 µM; with MDA-MB-435 it was 13.2 µM; in the test with NCI-H460 lung, 39.2 µM; with NCI-H522 lung, 42.1 µM; in the test with NCI/ADR-RES ovarian it was 80.9 µM; in the test with OVCAR-5 ovarian, greater than 100 µM. The TGI in the test with SN12C renal is 43.4 µM; in the test on T-47D breast, 72.1 µM; in the test on TK-10 renal it was 86.2 µM; with UACC-62 melanoma, 92 µM.

On to `CC1OC(OC2C[C@](O)(C(=O)CBr)Cc3c(O)c4c(c(O)c32)C(=O)c2ccccc2C4=O)C(F)C(O)C1O` (stereo not given in full), for which the TGI is 60.9 µM in the test on IGROV1 ovarian; 31.2 µM in the test with MDA-MB-435; 48.6 µM with NCI-H460 lung; 23.5 µM with NCI-H522 lung; greater than 67.7 µM in the test on NCI/ADR-RES ovarian; greater than 59.7 µM in the test on OVCAR-5 ovarian. For the same compound, the TGI was greater than 73.3 µM in the test on SN12C renal, greater than 82 µM in the test with T-47D breast, greater than 87.4 µM in the test with TK-10 renal and 34.5 µM in the test with UACC-62 melanoma.

Consider `COc1cc(OC2OC(CO)C(O)C(O)C2O)c2c(c1)O[C@@H]1[C@H](O)Oc3cc(OC)c(OC)cc3[C@]1(O)C2=O` (stereo not given in full), for which the TGI in the test with IGROV1 ovarian, in the test with MDA-MB-435, in the test with NCI-H460 lung, with NCI-H522 lung, in the test on NCI/ADR-RES ovarian and with OVCAR-5 ovarian was greater than 25 µM in each case. Further, the TGI with SN12C renal, in the test on T-47D breast, with TK-10 renal and in the test on UACC-62 melanoma was greater than 25 µM in each case.

On to `CC1(C)/C(=N\Nc2ccc([N+](=O)[O-])cc2[N+](=O)[O-])C2CCC1C2` (stereo not given), for which the TGI in the test on IGROV1 ovarian, with MDA-MB-435, in the test on NCI-H460 lung, in the test with NCI-H522 lung, in the test on NCI/ADR-RES ovarian and in the test with OVCAR-5 ovarian was greater than 100 µM each time. The TGI in the test on SN12C renal, in the test on T-47D breast, in the test with TK-10 renal and in the test on UACC-62 melanoma was greater than 100 µM throughout.

Consider `Brc1ccc(C2CC3(c4ccccc4)ON=C(c4ccccc4)N3c3ccccc3S2)cc1` (stereo not given), for which the TGI with IGROV1 ovarian, in the test with MDA-MB-435, in the test on NCI-H460 lung, in the test on NCI-H522 lung, with NCI/ADR-RES ovarian and in the test on OVCAR-5 ovarian was greater than 100 µM each time. For the same compound, the TGI in the test with SN12C renal, in the test on T-47D breast, with TK-10 renal and in the test with UACC-62 melanoma was greater than 100 µM in each case.

Turning to `Nc1nc(Cl)c(C=O)c(NCC2(CO)CCC2)n1`, the TGI in the test with IGROV1 ovarian is 25.9 µM; in the test with MDA-MB-435 it was greater than 100 µM; with NCI-H460 lung it was greater than 100 µM; with NCI-H522 lung, 14.7 µM; with NCI/ADR-RES ovarian, greater than 100 µM; with OVCAR-5 ovarian, greater than 100 µM. The TGI in the test with SN12C renal is greater than 100 µM; with T-47D breast it was greater than 100 µM; in the test with TK-10 renal, greater than 100 µM; in the test with UACC-62 melanoma it was 35.1 µM.

On to `Fc1cc2nc3n(c2cc1F)C(c1c(Cl)cccc1Cl)SC3` (stereo not given), for which the TGI is 34 µM in the test on IGROV1 ovarian; 28.9 µM in the test with MDA-MB-435; 26.6 µM in the test with NCI-H460 lung; 35.1 µM in the test on NCI-H522 lung; 37.7 µM with NCI/ADR-RES ovarian; 27.7 µM in the test on OVCAR-5 ovarian. The TGI in the test with SN12C renal stood at 29.8 µM; in the test on T-47D breast it was 31.7 µM; with TK-10 renal, 32.2 µM; with UACC-62 melanoma, 26.4 µM.

Turning to `COC1C(OC(C)=O)CC(=O)OC(C)C/C=C/C=C\C(O)C(C)CC(CC=O)C1OC1OC(C)C(OC2CC(C)(O)C(OC(=O)CC(C)C)C(C)O2)C(N(C)C)C1O` (stereo not given), the TGI in the test with IGROV1 ovarian, in the test on MDA-MB-435, in the test on NCI-H460 lung, in the test with NCI-H522 lung, in the test on NCI/ADR-RES ovarian and in the test with OVCAR-5 ovarian was greater than 100 µM each time. Further, the TGI with SN12C renal, with T-47D breast, with TK-10 renal and in the test on UACC-62 melanoma was greater than 100 µM throughout.

Regarding `CC(=O)OCCCCn1cnc2c(Cl)nc(Nc3ccccc3)nc21`, the TGI in the test with IGROV1 ovarian is greater than 100 µM; in the test with MDA-MB-435 it was greater than 100 µM; in the test with NCI-H460 lung it was greater than 100 µM; in the test on NCI-H522 lung, 87.4 µM; with NCI/ADR-RES ovarian, greater than 100 µM; in the test on OVCAR-5 ovarian it was greater than 100 µM. Also, the TGI with SN12C renal, in the test with T-47D breast, in the test with TK-10 renal and in the test with UACC-62 melanoma was greater than 100 µM throughout.

With `Cn1c(O)c(C=Nc2ccc(Cl)cc2Cl)c(=O)n(C)c1=O`, the TGI with IGROV1 ovarian, in the test on MDA-MB-435, in the test with NCI-H460 lung, in the test on NCI-H522 lung, in the test on NCI/ADR-RES ovarian and in the test with OVCAR-5 ovarian was greater than 100 µM throughout. The TGI in the test with SN12C renal, in the test on T-47D breast, with TK-10 renal and with UACC-62 melanoma was greater than 100 µM each time.

For `FC(F)(F)C1(c2ccccc2)SCc2nc3ccccc3n21` (stereo not given), the TGI with IGROV1 ovarian, with MDA-MB-435, with NCI-H460 lung, with NCI-H522 lung, in the test with NCI/ADR-RES ovarian and with OVCAR-5 ovarian was greater than 100 µM throughout. For the same compound, the TGI in the test on SN12C renal, with T-47D breast, with TK-10 renal and in the test with UACC-62 melanoma was greater than 100 µM each time.

On to `COc1ccc(Br)c(C=Nc2cccc3cc(OC)c(OC)cc23)c1`, for which the TGI with IGROV1 ovarian was greater than 93.9 µM; in the test with MDA-MB-435, 12.6 µM; in the test on NCI-H460 lung, greater than 100 µM; with NCI-H522 lung, greater than 100 µM; with NCI/ADR-RES ovarian, greater than 77.8 µM; with OVCAR-5 ovarian, greater than 100 µM. Also, the TGI in the test on SN12C renal is greater than 46.4 µM; in the test on T-47D breast it was greater than 100 µM; in the test with TK-10 renal, 71.6 µM; in the test on UACC-62 melanoma, greater than 83 µM.
